Test results reported in patent US5610297A, “Peptides ketoamides” (Georgia Tech Research Corp., priority 1995, dated 1997).
pKi: −log10 of the molar value.

How the values were obtained:
chymotrypsin = chymotrypsin (Bos taurus, UniProt P00766, DEL14-15/DEL147-148); test: Inhibition of chymotrypsin (Suc-Val-Pro-Phe-NA hydrolysis); type: biochemical, bovine
Protocol: (§1) Assay of Inhibitory Potency. Peptide α-ketoamides were assayed as reversible enzyme inhibitors. Various concentrations of inhibitors in Me2 SO were added to the assay mixture which contained buffer and substrate. The reaction was started by the addition of the enzyme and the hydrolysis rates were followed spectrophotometrically or fluorimetrically.
(§2) A 0.1M Hepes, 0.5M NaCl, pH 7.5 buffer was utilized for human leukocyte elastase (HLE), porcine pancreatic elastase (PPE), chymotrypsin and cathepsin G. A 0.1 Hepes, 0.01M CaCl2, pH 7.5 buffer was utilized for trypsin, plasmin, and coagulation enzymes. A 50 mM Tris-HCl, 2 mM EDTA, 5 mM cysteine, pH 7.5 was used as a buffer for papain. A 88 mM KH2 PO4, 12 mM Na2 HPO4, 1.33 mM EDTA, 2.7 mM cysteine, pH 6.0 solution was used as a buffer for cathepsin B. A 20 mM Hepes, 10 mM CaCl2, 10 mM mercatoethanol, pH 7.2 buffer was utilized for calpain I and calpain II.
HLE and PPE were assayed with MeO-Suc-Ala-Ala-Pro-Val-NA and Suc-Ala-Ala-Ala-NA, respectively [Nakajima et al., J. Biol. Chem. 254, 4027-4032 (1979); incorporated herein by reference]. Human leukocyte cathepsin G and chymotrypsin Aα were assayed with Suc-Val-Pro-Phe-NA [Tanaka et al., Biochemistry 24, 2040-2047 (1985); incorporated herein by reference]. The hydrolysis of peptide 4-nitroanilides was measured at 410 nm [ε410 =8800 M^-1 cm^-1; Erlanger et al., Arch. Biochem. Biophys. 95, pp 271-278 (1961); incorporated herein by reference]. Trypsin, thrombin, human plasma kallikrein, porcine pancreatic kallikrein, human factor XIa, and human plasmin were assayed with Z-Arg-SBzl or Z-Gly-Arg-SBu-i [McRae et al., Biochemistry 20, 7196-7206 (1981); incorporated herein by reference]. All peptide thioester hydrolysis rates were measured with assay mixtures containing 4,4'-dithiodipyridine [ε324 =19800 M^-1 cm^-1; Grasetti & Murray, Arch. Biochem. Biophys. 119, 41-49 (1967); incorporated herein by reference].

[1] = biological target: T1, Calpain I from human erythrocytes (Homo sapiens, UniProt P07384); test: Inhibition of calpain I (Suc-Leu-Tyr-AMC hydrolysis); type: biochemical
T1 construct: Calpain I was purified from human erythrocytes; from tissue; host or cells: human erythrocytes
T1 sequence (P07384 1-714): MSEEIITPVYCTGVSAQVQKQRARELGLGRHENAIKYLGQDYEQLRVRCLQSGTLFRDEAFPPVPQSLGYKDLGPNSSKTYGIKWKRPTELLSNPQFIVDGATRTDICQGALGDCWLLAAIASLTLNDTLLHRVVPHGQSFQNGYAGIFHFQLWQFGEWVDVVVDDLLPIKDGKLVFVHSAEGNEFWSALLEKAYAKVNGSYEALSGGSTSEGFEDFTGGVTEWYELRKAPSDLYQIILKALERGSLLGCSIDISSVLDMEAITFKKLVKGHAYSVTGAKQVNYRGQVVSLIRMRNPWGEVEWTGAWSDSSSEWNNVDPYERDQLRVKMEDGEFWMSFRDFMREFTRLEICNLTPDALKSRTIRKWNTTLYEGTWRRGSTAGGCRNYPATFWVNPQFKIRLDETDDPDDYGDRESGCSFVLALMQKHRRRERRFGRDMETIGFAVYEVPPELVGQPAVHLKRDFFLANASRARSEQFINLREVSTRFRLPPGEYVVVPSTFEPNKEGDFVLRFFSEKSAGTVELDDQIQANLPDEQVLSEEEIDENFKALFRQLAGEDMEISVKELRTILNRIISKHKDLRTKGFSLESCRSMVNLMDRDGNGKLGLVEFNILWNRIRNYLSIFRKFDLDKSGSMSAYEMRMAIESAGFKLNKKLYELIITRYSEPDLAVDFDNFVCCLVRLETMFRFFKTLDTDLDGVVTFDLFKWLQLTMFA
T1 sequence (P04632 1-268 partner): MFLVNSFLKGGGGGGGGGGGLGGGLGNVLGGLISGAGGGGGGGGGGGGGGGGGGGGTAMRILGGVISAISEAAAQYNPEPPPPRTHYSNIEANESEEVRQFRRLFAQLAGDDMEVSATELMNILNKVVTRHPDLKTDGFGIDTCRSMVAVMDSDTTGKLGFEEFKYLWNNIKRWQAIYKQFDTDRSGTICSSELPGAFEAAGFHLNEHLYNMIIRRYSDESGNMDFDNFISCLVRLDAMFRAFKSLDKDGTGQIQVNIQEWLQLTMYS
Protocol: (§3) Materials and Methods. HEPES, heparin, and A23187 were obtained from Calbiochem. Suc-Leu-Tyr-AMC and chromogenic substrates were obtained from Sigma. Calpain I was purified from human erythrocytes according to the method of Kitahara (Kitahara et al., J. Biochem. 95, 1759-1766) omitting the Blue-Sepharose step. Calpain II from rabbit muscle and cathepsin B were purchased from Sigma. Papain was purchased from Calbiochem.
as §1
(§4) Calpain I from human erythrocytes and calpain II from rabbit were assayed using Suc-Leu-Tyr-AMC [Sasaki et al., J. Biol. Chem. 259, 12489-12494 (1984); incorporated herein by reference], and the AMC (7-amino-4-methylcoumarin) release was followed fluorimetrically (excitation at 380 nm, and emmision at 460 nm). Calpains were assayed in 25 mM Tris pH=8.0, 10 mM CaCl2. Fluorescence was followed using a Gilson FL-1A fluorometer or a Perkin-Elmer 203 Fluorescence spectrometer. Cathepsin B was assayed in 20 mM sodium acetate pH=5.2, 0.5 mM dithiothreitol using Bz-Phe-Val-Arg-p-nitroanilide as substrate. Alternately, cathepsin B was assayed with Z-Arg-Arg-AFC [Barrett and Kirschke, Methods Enzymol. 80, 535-561 (1981); incorporated herein by reference], and the AFC (7-amino-4-trifluoromethylcoumarin) release was followed fluorimetrically (excitation at 400 nm and emmision at 505 nm). Papain was assayed in 100 mM KPO4, 1 mM EDTA, 2.5 mM cysteine pH=6.0 using Bz-Arg-AMC or Bz-Arg-NA [Kanaoka et al., Chem. Plmrm. Bull. 25, 3126-3128 (1977); incorporated herein by reference] as a substrate. The AMC (7-amino-4-methylcoumarin) release was followed fluorimetrically (excitation at 380 nm, and emmision at 460 nm). Enzymatic hydrolysis rates were measured at various substrate and inhibitor concentrations, and KI values were determined by either Lineweaver-Burk plots or Dixon plots.
as §2

[2] = biological target: Calpain II from rabbit muscle; test: Inhibition of calpain II (Suc-Leu-Tyr-AMC hydrolysis); type: biochemical
Protocol: as §3, §1, §4, §2

Half-life in plasma = type: in vitro ADME; details: unit inferred, unit assumed
cathepsin B = test: Inhibition of cathepsin B; type: biochemical; details: read-out: KI Cath B
Protocol: as §3, §1, §4, §2

Half-life in liver = type: in vitro ADME; details: unit inferred, unit assumed

pKi (chymotrypsin) | pKi [1] | better inhibitor of calpain I than Z-Leu-Phe-CONH-Et ([1]; relative to Z-Leu-Phe-CONH-Et) [fold] | pKi [2] | t 1/2 plasma (Half-life in plasma) [min] | pKi (cathepsin B) | t 1/2 liver (Half-life in liver) [min] | Structure (SMILES)
< 3.82 | 6.30 | 14 | 6.64 | > 60 | 5.62 | > 60 | CCNC(=O)C(=O)[C@H](CC)NC(=O)[C@H](CC(C)C)NC(=O)OCc1ccccc1 [Z--Leu--Abu--CONH--Et, Z-Leu-Abu-CONH-Et]
< 3.52 | 6.70 | – | – | > 60 | 4.89 | > 60 | CCCCNC(=O)C(=O)C(CC)NC(=O)C(CC(C)C)NC(=O)OCc1ccccc1 (stereo not drawn) [Z--Leu--Abu--CONH--nBu, Z-Leu-Abu-CONH-nBu]
4.14 | 5.15 | – | 6.49 | > 60 | 5.22 | > 60 | CCNC(=O)C(=O)[C@H](Cc1ccccc1)NC(=O)[C@H](CC(C)C)NC(=O)OCc1ccccc1 [Z--Leu--Phe--CONH--Et, Z-Leu-Phe-CONH-Et]
4.74 | 4.82 | – | 7.30 | > 60 | 5.52 | > 60 | CCCNC(=O)C(=O)C(Cc1ccccc1)NC(=O)C(CC(C)C)NC(=O)OCc1ccccc1 (stereo not drawn) [Z--Leu--Phe--CONH--nPr, Z-Leu-Phe-CONH-nPr]
